These are literature values, as cited in patent publication US10058559B2, “Treatment or prevention of an intestinal disease or disorder” (The United States of America, as represented by the …, priority 2014, dated 2018).

Usually IC50 stands for the point on the concentration scale where inhibition reaches its midpoint.

The target of one data set is CAMKK2 (Homo sapiens, UniProt Q96RR4). The note with it: 185-kinase panel; cited from earlier work.
The target of another data set is T1, PLK4 (Homo sapiens, UniProt O00444).
T1 sequence (O00444 1-970): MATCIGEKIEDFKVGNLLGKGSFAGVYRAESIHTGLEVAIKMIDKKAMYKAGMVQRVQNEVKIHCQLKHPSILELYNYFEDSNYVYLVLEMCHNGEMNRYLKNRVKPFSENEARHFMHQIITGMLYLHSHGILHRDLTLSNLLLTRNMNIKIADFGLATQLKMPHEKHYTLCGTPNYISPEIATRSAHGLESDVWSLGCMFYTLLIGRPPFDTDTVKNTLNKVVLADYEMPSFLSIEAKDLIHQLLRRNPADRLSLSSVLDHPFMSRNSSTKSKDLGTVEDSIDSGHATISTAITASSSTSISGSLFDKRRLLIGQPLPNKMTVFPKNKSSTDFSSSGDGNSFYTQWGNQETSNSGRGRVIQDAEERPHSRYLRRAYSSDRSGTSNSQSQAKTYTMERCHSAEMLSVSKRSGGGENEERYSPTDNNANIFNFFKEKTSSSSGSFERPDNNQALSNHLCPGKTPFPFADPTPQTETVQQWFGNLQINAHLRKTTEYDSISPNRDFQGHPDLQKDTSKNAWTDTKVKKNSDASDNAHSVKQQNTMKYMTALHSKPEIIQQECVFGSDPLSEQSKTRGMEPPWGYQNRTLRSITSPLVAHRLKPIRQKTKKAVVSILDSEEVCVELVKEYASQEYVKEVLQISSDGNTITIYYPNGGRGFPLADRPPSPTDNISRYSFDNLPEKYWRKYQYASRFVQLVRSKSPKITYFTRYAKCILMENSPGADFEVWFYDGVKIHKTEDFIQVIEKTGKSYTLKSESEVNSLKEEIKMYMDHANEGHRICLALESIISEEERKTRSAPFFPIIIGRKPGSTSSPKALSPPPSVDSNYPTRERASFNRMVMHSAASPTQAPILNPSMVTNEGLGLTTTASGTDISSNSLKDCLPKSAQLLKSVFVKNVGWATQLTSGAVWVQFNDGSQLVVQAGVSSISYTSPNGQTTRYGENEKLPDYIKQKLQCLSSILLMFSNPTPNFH
The note with it: 185-kinase panel; cited from earlier work.

In another data set the target is T2, PIP4K2C (Homo sapiens, UniProt Q8TBX8).
T2 sequence (Q8TBX8 1-421): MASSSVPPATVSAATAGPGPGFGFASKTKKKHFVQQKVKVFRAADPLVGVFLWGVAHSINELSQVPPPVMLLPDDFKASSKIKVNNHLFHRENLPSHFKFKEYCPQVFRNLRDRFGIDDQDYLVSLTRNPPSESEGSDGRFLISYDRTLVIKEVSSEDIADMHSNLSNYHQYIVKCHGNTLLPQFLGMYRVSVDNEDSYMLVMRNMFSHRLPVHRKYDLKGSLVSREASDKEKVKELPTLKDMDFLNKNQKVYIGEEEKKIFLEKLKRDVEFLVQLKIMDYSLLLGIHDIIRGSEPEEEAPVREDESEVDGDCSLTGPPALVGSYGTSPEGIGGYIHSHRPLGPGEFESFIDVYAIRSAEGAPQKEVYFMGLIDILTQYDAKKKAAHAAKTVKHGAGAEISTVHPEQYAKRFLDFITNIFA
The note with it: 185-kinase panel; cited from earlier work.

The conditions of data set [1]: in vivo; cited from earlier work.
Another data set addresses T3, TNK1 (Homo sapiens, UniProt Q13470).
T3 sequence (Q13470 1-666): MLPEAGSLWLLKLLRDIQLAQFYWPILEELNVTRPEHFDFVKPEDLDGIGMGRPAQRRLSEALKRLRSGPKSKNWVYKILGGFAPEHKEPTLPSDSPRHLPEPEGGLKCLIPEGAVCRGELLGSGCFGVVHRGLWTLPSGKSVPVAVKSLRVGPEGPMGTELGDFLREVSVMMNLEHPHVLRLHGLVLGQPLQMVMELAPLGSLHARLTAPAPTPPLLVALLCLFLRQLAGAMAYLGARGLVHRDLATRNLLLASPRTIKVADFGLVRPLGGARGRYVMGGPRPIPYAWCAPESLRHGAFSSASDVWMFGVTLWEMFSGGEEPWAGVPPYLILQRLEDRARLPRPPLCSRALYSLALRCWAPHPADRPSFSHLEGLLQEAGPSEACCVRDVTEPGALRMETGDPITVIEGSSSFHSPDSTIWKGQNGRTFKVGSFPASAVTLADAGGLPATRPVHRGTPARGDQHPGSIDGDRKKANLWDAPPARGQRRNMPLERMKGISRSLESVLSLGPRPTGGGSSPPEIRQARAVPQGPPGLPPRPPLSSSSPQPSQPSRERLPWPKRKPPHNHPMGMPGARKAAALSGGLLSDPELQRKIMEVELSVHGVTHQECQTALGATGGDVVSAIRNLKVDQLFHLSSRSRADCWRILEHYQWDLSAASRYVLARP
The note with it: 185-kinase panel; cited from earlier work.

The target in the next data set is T4, GAK (Homo sapiens, UniProt O14976).
T4 sequence (O14976 1-1311): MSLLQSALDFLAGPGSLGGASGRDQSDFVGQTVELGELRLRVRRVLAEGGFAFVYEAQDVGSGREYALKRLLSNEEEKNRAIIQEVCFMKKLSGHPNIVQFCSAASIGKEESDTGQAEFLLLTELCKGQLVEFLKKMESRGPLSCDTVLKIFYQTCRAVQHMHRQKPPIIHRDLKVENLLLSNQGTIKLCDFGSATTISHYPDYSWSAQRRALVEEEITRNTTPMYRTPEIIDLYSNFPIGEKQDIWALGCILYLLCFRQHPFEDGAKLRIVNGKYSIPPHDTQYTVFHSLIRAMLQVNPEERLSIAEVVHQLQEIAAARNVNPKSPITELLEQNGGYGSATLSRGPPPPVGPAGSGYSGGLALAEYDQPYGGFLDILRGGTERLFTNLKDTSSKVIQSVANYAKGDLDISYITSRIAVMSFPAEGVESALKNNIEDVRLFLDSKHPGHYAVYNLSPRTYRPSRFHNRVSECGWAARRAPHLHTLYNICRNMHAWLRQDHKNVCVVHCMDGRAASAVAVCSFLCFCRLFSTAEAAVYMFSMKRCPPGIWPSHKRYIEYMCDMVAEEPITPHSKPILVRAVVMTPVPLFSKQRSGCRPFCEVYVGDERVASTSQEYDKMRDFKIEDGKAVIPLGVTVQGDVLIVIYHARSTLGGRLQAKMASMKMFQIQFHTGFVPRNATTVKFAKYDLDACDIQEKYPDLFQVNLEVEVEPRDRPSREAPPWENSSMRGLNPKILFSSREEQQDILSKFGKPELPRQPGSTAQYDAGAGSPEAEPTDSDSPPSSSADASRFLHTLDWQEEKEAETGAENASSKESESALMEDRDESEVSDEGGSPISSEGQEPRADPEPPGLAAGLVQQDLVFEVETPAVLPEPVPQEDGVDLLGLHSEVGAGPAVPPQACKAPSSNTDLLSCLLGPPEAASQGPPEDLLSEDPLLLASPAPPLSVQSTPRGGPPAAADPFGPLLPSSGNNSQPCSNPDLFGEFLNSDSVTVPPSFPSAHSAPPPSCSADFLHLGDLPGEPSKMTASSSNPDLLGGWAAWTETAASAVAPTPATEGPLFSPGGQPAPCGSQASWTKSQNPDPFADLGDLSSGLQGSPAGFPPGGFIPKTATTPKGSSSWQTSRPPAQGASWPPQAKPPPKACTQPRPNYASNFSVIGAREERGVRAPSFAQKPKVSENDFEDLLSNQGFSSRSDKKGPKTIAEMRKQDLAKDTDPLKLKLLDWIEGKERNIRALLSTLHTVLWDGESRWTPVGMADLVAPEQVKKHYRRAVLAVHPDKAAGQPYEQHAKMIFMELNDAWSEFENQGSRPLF
The settings on record: 185-kinase panel; cited from earlier work.

Chain of CAMKK2 (Q96RR4 whole entry, species assumed): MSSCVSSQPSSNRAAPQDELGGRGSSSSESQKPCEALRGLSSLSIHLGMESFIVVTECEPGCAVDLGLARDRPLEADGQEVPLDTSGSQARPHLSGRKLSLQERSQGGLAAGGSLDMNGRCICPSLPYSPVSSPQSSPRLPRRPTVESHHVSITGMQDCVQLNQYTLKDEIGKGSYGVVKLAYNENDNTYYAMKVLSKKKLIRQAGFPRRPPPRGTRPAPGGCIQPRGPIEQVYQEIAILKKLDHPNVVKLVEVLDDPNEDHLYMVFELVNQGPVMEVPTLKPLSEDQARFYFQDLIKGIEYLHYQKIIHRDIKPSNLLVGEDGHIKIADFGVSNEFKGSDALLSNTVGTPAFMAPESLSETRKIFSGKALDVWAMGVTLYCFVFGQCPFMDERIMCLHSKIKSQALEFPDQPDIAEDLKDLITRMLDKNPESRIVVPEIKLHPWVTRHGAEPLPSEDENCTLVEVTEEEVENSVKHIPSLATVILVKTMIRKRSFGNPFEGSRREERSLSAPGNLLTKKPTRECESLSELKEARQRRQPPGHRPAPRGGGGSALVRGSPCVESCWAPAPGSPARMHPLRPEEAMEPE

As for `COc1cc(N2CCOCC2)ccc1Nc1ncc(F)c(Nc2ccccc2NS(C)(=O)=O)n1.Cl` [CZC-25146, N-(2-(5-Fluoro-2-(2-methoxy-4-morpholinophenylamino)pyrimidin-4-ylamino)phenyl)methanesulfonamide, HCl], the IC50 at CAMKK2, on PLK4, on PIP4K2C, on TNK1 and on GAK was less than 300 nM throughout. In addition, in data set [1], the oral bioavailability entry was “orally bioavailable”.
